The source of these data is US10351553B2, “Potassium channel modulators” (Cadent Therapeutics, Inc., priority 2017, dated 2019).

pIC50: −log10 of the molar value. ≈ marks a conversion by molar mass, not a printed value.

Data set [1] is described as follows: Metabolic stability in liver microsomes, monkey. Format: in vitro ADME. As to conditions: % remaining at 1 hour; 1 μM. The procedure:
(§1) Metabolic stability profiling of the compounds was performed in liver microsomes. In this assay, test compound is incubated with liver microsomes in the presence of NADPH for 2 time points at 37° C. At the end of incubation, reaction is quenched with acetonitrile containing internal standard and the parent compound remaining is determined by LC-MS/MS. Conditions used in the assay are summarized below. […], 37° C. • Test concentration: 1 μM in 0.02% DMSO at pH 7.4 (n=2) • NADPH concentration in assay: 1 mM • Liver microsome protein concentration in assay: 0.5 mg/ml • Analysis: LC-MS/MS • Data reported: % Parent Compound Remaining (% PCR) • Reference compounds for high and low clearance are included • Species tested: mouse, rat, dog, monkey, and human
In general terms: Microsomes from liver hold many membrane-bound enzymes, among them those of drug oxidation.

A short description of data set [2]: Aqueous (kinetic) solubility, shake-flask, phosphate buffer pH 7.4. Format: physicochemical. Particulars: 23 °C, kinetic from dmso stock, phosphate buffer pH 7.4, 16 hours at room temperature. The method, then: Aqueous solubility (kinetic solubility) tests of the compounds were performed in phosphate buffer saline (pH 7.4) measured by shake-flask method. In this assay, DMSO stock solution of test compound is added to buffer followed by equilibration (shaking), filtration and determination of soluble amount by HPLC-UV Conditions used in the assay are summarized below.

In another data set the target is T1, CYP2D6 (Homo sapiens, UniProt P10635).
T1 construct: Matrix: Human Liver Microsome (Invitrogen, life technologies); tissue Invitrogen, life technologies; host or cells: human liver microsomes
T1 sequence (P10635 whole entry): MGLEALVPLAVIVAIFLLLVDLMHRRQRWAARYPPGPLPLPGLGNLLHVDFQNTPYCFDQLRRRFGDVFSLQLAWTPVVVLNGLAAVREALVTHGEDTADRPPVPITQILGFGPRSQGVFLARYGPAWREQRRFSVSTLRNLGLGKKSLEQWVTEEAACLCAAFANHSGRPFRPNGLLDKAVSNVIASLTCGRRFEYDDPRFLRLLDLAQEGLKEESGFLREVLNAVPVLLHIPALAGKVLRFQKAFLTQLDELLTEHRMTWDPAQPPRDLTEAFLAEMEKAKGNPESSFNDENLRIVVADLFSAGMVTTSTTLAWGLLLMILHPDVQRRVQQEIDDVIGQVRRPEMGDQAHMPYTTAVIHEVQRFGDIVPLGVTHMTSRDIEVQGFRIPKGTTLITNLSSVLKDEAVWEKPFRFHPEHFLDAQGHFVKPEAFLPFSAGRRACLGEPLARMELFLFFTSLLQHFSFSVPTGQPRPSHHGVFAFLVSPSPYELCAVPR
Description: CYP inhibition in human liver microsome, CYP2D6 (Bufuralol). Format: in vitro ADME. The procedure: (§2) Compounds described herein were tested for CYP inhibition across 5 isoforms (3A4, 2D6, 2C9, 2C19 & 1A2). In this assay, CYP isoform specific substrates are incubated with human liver microsome (HLM) in the presence of test compounds, and metabolite formation is determined. Percentage inhibition of metabolite formation at different concentrations of test compound is calculated and IC50 is determined. Conditions used in the assay are summarized below. Results are shown in Table 2. • Test drug (Inhibitor) Concentration: 8 different concentrations (100 μM to 0.005 μM) • Matrix: Human Liver Microsome (Invitrogen, life technologies) • Specific probe substrates will be used for the isoforms as given below: • CYP3A4: Midazolam • CYP2D6: Bufuralol • CYP2C9: Diclofenac • CYP2C19: Mephynitoin • CYP1A2: Phenacetin • Cofactors: NADPH (1 mM final in assay) • Sample Analysis: LC-MS/MS (metabolites) • Specific reference inhibitors included in all assays (Ketoconazole/Quinidine/Sulphaphenazole/Ticlopidine/Furafylline) • Buffer: Potassium Phosphate Buffer (100 mM) pH 7.4 • DMSO level in assay: 0.1% • Data analysis: % Inhibition over control

A short description of data set [3]: Oral bioavailability in rat. In kind it is in vivo. Particulars: male, Sprague Dawley, plasma; 10 mg/kg PO, 0.5 mg/kg IV in rat. An excerpt:
Oral bioavailability data was collected in rat as follows.

Another data set deals with T2, SK2 channels (Homo sapiens, UniProt Q9H2S1).
T2 construct: expressed in transfected cells; host or cells: HEK293
Description: Whole-cell patch-clamp of SK2 current in HEK293 cells expressing SK2 channels. In kind it is cell-based. Particulars: for SK2 potency (SC100): Table 2, concentration that produces doubling of channel current, averages from later experiments. The procedure:
The biological activity was determined as follows. The ionic current through small-conductance Ca^2+-activated K^+ channels (SK channels, subtype 2) was measured using the whole-cell configuration of the patch-clamp technique in a patch-clamp set-up using HEK293 tissue culture cells expressing SK2 channels as described in Hougaard et al., British Journal of Pharmacology 151, 655-665, May 8, 2007, the entire teachings of which are incorporated herein by reference. In one aspect, a compound is defined to be an SK Positive Allosteric Modulator (PAM) if the compound increases current in this assay, for example, if the SC100 value of the compound is less than or equal to 10 μM as determined by this assay. The SC100 value is defined to be the concentration of compound that increases the basal current by 100%.
On the technique in general: The patch-clamp technique gives a direct electrical read-out from membranes.

Data set [4] can be described thus: Metabolic stability in liver microsomes, rat. As to conditions: % remaining at 1 hour; 1 μM. In kind it is in vitro ADME. The method, then: as §1
The nature of data set [5]: Metabolic stability in liver microsomes, mouse. In kind it is in vitro ADME. As to conditions: % remaining at 1 hour; 1 μM. The procedure: as §1
Data set [6] in a line: Metabolic stability in liver microsomes, human. In kind it is in vitro ADME. Particulars: % remaining at 1 hour; 1 μM. The procedure:
as §1

The target of a further data set is T3, CYP1A2 (Homo sapiens, UniProt P05177).
T3 construct: Matrix: Human Liver Microsome (Invitrogen, life technologies); tissue Invitrogen, life technologies; host or cells: human liver microsomes
T3 sequence (P05177 1-516): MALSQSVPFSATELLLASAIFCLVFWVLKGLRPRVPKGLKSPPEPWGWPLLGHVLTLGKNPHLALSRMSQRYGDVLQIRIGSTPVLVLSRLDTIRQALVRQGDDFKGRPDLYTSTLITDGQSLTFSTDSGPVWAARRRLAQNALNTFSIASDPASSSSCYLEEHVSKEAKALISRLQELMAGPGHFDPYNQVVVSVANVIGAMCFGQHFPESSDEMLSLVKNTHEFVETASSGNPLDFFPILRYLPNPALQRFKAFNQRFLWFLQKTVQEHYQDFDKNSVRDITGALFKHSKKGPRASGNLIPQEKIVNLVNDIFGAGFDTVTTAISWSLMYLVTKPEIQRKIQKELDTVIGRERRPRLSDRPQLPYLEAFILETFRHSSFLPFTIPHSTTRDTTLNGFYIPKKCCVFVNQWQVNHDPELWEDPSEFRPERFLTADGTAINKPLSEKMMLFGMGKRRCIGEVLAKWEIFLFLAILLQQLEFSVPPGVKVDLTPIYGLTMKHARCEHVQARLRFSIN
Put plainly: CYP inhibition in human liver microsome, CYP1A2 (Phenacetin). In kind it is in vitro ADME. The method, then:
as §2

Turning to `Cc1cc(NC2CCCCC2)nc(-n2nc(C)cc2C)n1` [Comparator A, reference compound], in [1], the “Liver microsome stability, Monkey” value was 1%. Besides, the solubility (kinetic) – broadly, the concentration staying in solution when a stock, usually in DMSO, is diluted into the medium – at 16 h in [2] came to 17 µg/mL (≈ 59.6 µM). Also, the pIC50 (commonly −log10 of the IC50, conventionally taken in molar units) is 6.10 against CYP2D6 and 6.19 against CYP1A2. In addition, in data set [3], the bioavailability – broadly, the share of a dose that reaches the circulation, judged against a reference dose that is usually intravenous – came out at 5%. For the same molecule, on SK2 channels, the “SK2 potency (SC100)” value is on record as 1380 nM. Also, in [4], the “Liver microsome stability, Rat” value was 1%. Moreover, the “Liver microsome stability, Mouse” value in data set [5] is 1%. In data set [6], the “Liver microsome stability, Human” value is on record as 50%.
Regarding `Cc1ccn(-c2nc(NC3CCC(F)(F)CC3)cc(N3CCOCC3)n2)n1` [Compound 1, N-(4,4-difluorocyclohexyl)-2-(3-methyl-1H-pyrazol-1-yl)-6-morpholinopyrimidin-4-amine], the “Liver microsome stability, Monkey” value in data set [1] turned out to be 46%. Moreover, the solubility (kinetic) at 16 h in [2] stood at 74 µg/mL (≈ 196 µM). Besides, the negative-log IC50 (pIC50) against CYP2D6 and at CYP1A2 was below 5.00 throughout. For the same molecule, the bioavailability in data set [3] came to 81%. The “Measured SK2 SC100” value at SK2 channels (Table 1, concentration that increases the basal current by 100%) turned out to be 0.5 µM. Also, the “SK2 potency (SC100)” value at SK2 channels is on record as 400 nM. Moreover, the “Liver microsome stability, Rat” value in [4] was 60%. Besides, the “Liver microsome stability, Mouse” value in [5] came to 47%. Further, the “Liver microsome stability, Human” value in data set [6] amounted to 84%.
